This assay concerns MCF-7. Put plainly: Cell cycle analysis by flow cytometry (propidium iodide). Type of assay: cell-based, human. The conditions noted are these: MCF7 and U2OS with siRNA knockdown; data not shown.

For the compound `O=c1[nH]cc(F)c(=O)[nH]1` [5-fluorouracil], the “cell cycle arrest response (control)” value was “potent p53-dependent cell cycle arrest response”.

These data come from publication PMC4303209, “A novel phosphatidylinositol 3-kinase (PI3K) inhibitor directs a potent FOXO-dependent, p53-independent cell cycle arrest phenotype characterized by the differential induction of a subset of FOXO-regulated genes” (Breast Cancer Research : BCR, 2014).
